According to patent US10947291B2, “Treating type I and type II diabetes” (Mayo Foundation for Medical Education and Research, priority 2013, dated 2021):

Test system: female mice (C57/BL6) with streptozocin-induced hyperglycemia
Assay: AAV1.CMV.insulin.RSV.icasp9 and AP20187 in streptozocin-treated C57/BL6 mice, blood glucose
Format: in vivo
Details: IP 10 mg/kg, five consecutive days starting on day 14 after AAV1.CMV.insulin.RSV.icasp9 (FIG. 6)
Description: FIG. 6 is a graph plotting glucose levels for three groups of mice. One group was treated intraperitoneally (IP) with streptozocin (STZ) for two weeks to develop hyperglycemia. A second group was treated intraperitoneally (IP) with streptozocin (STZ) for two weeks to develop hyperglycemia and then administered AAV1.CMV.insulin.RSV.icasp9 (AAV1) intramuscularly (IM) on day zero. The third group was treated intraperitoneally (IP) with streptozocin (STZ) for two weeks to develop hyperglycemia, was then administered AAV1.CMV.insulin.RSV.icasp9 (AAV1) intramuscularly (IM) on day zero followed by intraperitoneal (IP) administration of AP20187 (B/B) on days 14, 15, 16, 17, and 18.
To induce diabetes in mice, three groups of female mice (C57/BL6) were given, on 5 consecutive days, an intraperitoneal (IP) injection of Streptozocin (STZ; Sigma cat #50130) at 45 mg/kg body weight dissolved in 0.1 mol/L citrate buffer (pH 4.5) immediately before administration. Two weeks later, when hyperglycemia developed, two groups of mice were injected intramuscularly (IM) with 1×10E11 particles/mice of AAV1.CMV.insulin.RSV.icasp9. Blood glucose levels were determined using a Contour blood glucose test strips (Bayer HealthCare LLC). 14 days later, one group of mice was injected via IP injection with 10 mg/kg of AP20187 (B/B homodimerizer; Clontech, Cat. No. AP20187) for 5 consecutive days.

Compound: CC[C@H](C(=O)N1CCCCC1C(=O)O[C@H](CCc1ccc(OC)c(OC)c1)c1cccc(OCC(=O)NCC(CNC(=O)COc2cccc([C@@H](CCc3ccc(OC)c(OC)c3)OC(=O)[C@@H]3CCCCN3C(=O)[C@@H](CC)c3cc(OC)c(OC)c(OC)c3)c2)CN(C)C)c1)c1cc(OC)c(OC)c(OC)c1 (stereo partly shown) [AP20187]
- glucose levels after induction of the iCasp9 death switch: steady increase in glucose levels
